Measurements reported in patent US20250064941A1, “SIGLEC LIGANDS, CONJUGATES, AND METHODS OF USE THEREOF” (Osprey Biopharmaceuticals, Inc., priority 2023, published 2025).
pKd: −log10 of the molar value.

How the values were obtained:
[1] = target: T1, mouse Siglec-2-Fc-Avi (CD22) (Mus musculus, UniProt P35329); test: SPR binding affinity to mouse CD22; details: steady-state analysis
T1 construct: made in house
T1 sequence (P35329 22-708 limits assumed): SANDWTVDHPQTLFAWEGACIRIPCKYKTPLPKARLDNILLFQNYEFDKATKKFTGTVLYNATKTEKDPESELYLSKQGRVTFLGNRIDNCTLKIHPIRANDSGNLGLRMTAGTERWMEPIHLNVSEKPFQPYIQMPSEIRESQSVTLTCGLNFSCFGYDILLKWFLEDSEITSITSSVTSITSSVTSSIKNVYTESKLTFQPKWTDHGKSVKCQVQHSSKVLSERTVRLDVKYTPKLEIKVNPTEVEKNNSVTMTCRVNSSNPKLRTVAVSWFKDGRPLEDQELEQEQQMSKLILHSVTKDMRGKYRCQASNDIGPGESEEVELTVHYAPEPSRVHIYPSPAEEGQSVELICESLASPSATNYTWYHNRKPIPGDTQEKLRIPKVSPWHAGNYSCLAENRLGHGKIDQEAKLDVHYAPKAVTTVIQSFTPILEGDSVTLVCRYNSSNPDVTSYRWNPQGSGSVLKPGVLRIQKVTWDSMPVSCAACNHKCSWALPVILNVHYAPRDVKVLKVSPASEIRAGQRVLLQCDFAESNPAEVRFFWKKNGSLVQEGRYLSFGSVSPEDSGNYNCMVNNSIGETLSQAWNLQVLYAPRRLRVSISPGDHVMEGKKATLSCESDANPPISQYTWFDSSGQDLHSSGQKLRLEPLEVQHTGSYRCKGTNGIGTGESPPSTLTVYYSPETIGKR
How it was run: (§1)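 Native sialic acid residues are removed from the receptor enzymatically (4 hours at 37° C.) prior to streptavidin capture of the biotinylated protein. Ligand compounds then flow over in HEPES-buffered saline, pH 7.5, containing 0.05% Tween-20 and 1% DMSO, and binding is evaluated at steady state.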

cynomolgus Siglec-2/CD22 = cynomolgus Siglec-2/CD22 (Macaca fascicularis, UniProt A0A2K5WCZ6); test: biochemical; format: binding; details: SPR, steady-state analysis; read-out: Affinity cyno CD22
Chain of cynomolgus Siglec-2/CD22 (A0A2K5WCZ6 entry or part of it): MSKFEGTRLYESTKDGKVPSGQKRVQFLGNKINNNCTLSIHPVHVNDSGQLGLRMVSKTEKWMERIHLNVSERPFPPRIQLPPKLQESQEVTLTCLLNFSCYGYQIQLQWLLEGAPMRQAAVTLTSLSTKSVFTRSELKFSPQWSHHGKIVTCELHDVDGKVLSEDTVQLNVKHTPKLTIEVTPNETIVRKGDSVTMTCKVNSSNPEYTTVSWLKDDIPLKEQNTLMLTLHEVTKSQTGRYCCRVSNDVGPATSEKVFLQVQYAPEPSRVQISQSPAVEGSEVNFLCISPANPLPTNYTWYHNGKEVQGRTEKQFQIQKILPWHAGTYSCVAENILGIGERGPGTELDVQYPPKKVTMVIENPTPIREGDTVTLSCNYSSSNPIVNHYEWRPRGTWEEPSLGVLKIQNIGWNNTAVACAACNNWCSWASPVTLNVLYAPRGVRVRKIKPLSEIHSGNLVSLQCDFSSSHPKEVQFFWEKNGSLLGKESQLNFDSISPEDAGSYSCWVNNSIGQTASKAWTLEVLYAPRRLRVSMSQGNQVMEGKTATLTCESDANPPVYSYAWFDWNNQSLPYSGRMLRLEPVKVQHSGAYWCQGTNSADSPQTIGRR
How it was run: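 Compound binding measured by steady-state SPR analysis, 120 s dissociation, in HEPES-NaCl-Tween buffer pH 7.5 containing 1% DMSO, DMSO solvent-corrected. Surface: cyno CD22, sialic acids first stripped by SialoExo for 4 h at 37° C., then amine-coupled onto CM5.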

[2] = target: T2, human Siglec-2/CD22 protein (Homo sapiens, UniProt P20273); test: SPR binding affinity to human CD22; details: steady-state analysis
T2 construct: purchased Acro Biosystems SI2-H82E3
T2 sequence (P20273 20-847): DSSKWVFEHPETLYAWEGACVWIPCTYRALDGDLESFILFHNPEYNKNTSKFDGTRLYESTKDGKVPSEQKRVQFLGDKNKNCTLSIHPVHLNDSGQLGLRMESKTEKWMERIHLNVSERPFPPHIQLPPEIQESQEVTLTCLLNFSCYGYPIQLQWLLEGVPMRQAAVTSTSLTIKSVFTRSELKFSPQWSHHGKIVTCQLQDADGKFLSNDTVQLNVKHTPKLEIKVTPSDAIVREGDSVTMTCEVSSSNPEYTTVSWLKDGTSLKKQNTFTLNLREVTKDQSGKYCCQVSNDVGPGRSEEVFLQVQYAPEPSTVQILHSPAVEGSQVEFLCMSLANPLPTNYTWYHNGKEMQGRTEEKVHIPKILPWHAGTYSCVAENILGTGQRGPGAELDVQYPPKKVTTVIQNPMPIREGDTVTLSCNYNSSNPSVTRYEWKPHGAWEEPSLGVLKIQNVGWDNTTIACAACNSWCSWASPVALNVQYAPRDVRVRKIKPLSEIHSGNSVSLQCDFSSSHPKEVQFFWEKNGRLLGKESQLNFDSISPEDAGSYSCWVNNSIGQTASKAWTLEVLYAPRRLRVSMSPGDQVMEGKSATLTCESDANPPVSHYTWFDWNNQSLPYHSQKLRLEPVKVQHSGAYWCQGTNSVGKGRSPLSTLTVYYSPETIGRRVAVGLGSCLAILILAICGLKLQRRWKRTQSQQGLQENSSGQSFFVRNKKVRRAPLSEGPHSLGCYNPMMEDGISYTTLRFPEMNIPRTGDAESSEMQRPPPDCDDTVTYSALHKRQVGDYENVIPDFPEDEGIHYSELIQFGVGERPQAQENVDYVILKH
How it was run: as §1

pKd [1]	pKd (cynomolgus Siglec-2/CD22)	pKd [2]	SMILES
5.00 to 6.00	> 6.00	> 6.00	CCCCCCC[C@]1(C(=O)O)C[C@H](O)[C@@H](NC(=O)CO)[C@H]([C@H](O)[C@H](O)CNC(=O)Cc2ccc(Cl)cc2)O1 [Compound 206, (2R,4S,5R,6R)-6-((1R,2R)-3-(2-(4-chlorophenyl)acetamido)-1,2-dihydroxypropyl)-2-heptyl-4-hydroxy-5-(2-hydroxyacetamido)tetrahydro-2H-pyran-2-carboxylic acid]
> 6.00	> 6.00	> 6.00	CC(=O)NCCOCCOCCOCCOCCC(=O)NCCCCCCO[C@]1(C(=O)O)C[C@H](O)[C@@H](NC(=O)CO)[C@H]([C@H](O)[C@H](O)CNC(=O)Cc2ccc(Cl)cc2)O1 [Cpd. 244, (2R,4S,5R,6R)-6-((1R,2R)-3-(2-(4-chlorophenyl)acetamido)-1,2-dihydroxypropyl)-2-((2,18-dioxo-6,9,12,15-tetraoxa-3,19-diazapentacosan-25-yl)oxy)-4-hydroxy-5-(2-hydroxyacetamido) tetrahydro-2H-pyran-2-carboxylic acid]
< 5.00	> 6.00	5.00 to 6.00	C#CCOCCCCCCO[C@]1(C(=O)O)C[C@H](O)[C@@H](NC(=O)Cc2nn[nH]n2)[C@H]([C@H](O)[C@H](O)CNC(=O)Cc2ccc(Cl)cc2)O1 [Compound 208, (2R,4S,5R,6R)-5-(2-(2H-tetrazol-5-yl)acetamido)-6-((1R,2R)-3-(2-(4-chlorophenyl)acetamido)-1,2-dihydroxypropyl)-4-hydroxy-2-((6-(prop-2-yn-1-yloxy)hexyl)oxy)tetrahydro-2H-pyran-2-carboxylic acid]
5.00 to 6.00	5.00 to 6.00	< 5.00	C#CCOCCCCCCO[C@]1(C(=O)O)C[C@H](O)[C@@H](NCC(=O)N(C)C)[C@H]([C@H](O)[C@H](O)CNC(=O)Cc2ccc(Cl)cc2)O1 [Compound 180, (2R,4S,5R,6R)-6-((1R,2R)-3-(2-(4-chlorophenyl)acetamido)-1,2-dihydroxypropyl)-5-((2-(dimethylamino)-2-oxoethyl)amino)-4-hydroxy-2-((6-(prop-2-yn-1-yloxy)hexyl)oxy)tetrahydro-2H-pyran-2-carboxylic acid]
> 6.00	> 6.00	> 6.00	C#CCCCCCCS[C@]1(C(=O)O)C[C@H](O)[C@@H](NC(=O)CO)[C@H]([C@H](O)[C@H](O)CNC(=O)Cc2ccc(-c3ccc(O)cc3)cc2)O1 [Compound 49, (2S,4S,5R,6R)-6-((1R,2R)-1,2-dihydroxy-3-(2-(4′-hydroxy-[1,1′-biphenyl]-4-yl)acetamido)propyl)-4-hydroxy-5-(2-hydroxyacetamido)-2-(oct-7-yn-1-ylthio)tetrahydro-2H-pyran-2-carboxylic acid]
> 6.00	> 6.00	> 6.00	C#CCCCCCCO[C@]1(C(=O)O)C[C@H](O)[C@@H](NC(=O)CO)[C@H]([C@H](O)[C@H](O)CNC(=O)Cc2ccc(C(F)F)cc2)O1 [Compound 212, (2R,4S,5R,6R)-6-((1R,2R)-3-(2-(4-(difluoromethyl)phenyl)acetamido)-1,2-dihydroxypropyl)-4-hydroxy-5-(2-hydroxyacetamido)-2-(oct-7-yn-1-yloxy)tetrahydro-2H-pyran-2-carboxylic acid]
5.00 to 6.00	5.00 to 6.00	> 6.00	C#CCOCCOCCO[C@]1(C(=O)O)C[C@H](O)[C@@H](NC(=O)CO)[C@H]([C@H](O)[C@H](O)CNC(=O)Cc2cccc(Cl)c2)O1 [Compound 125, (2R,4S,5R,6R)-6-((1R,2R)-3-(2-(3-chlorophenyl)acetamido)-1,2-dihydroxypropyl)-4-hydroxy-5-(2-hydroxyacetamido)-2-(2-(2-(prop-2-yn-1-yloxy)ethoxy)ethoxy)tetrahydro-2H-pyran-2-carboxylic acid]
< 5.00	< 5.00	< 5.00	C#CCOCCOCCO[C@]1(C(=O)O)C[C@H](O)[C@@H](NC(=O)CO)[C@H]([C@H](O)[C@H](O)CNC(=O)C[C@H]2CC[C@@H](O)CC2)O1 [Compound 200, (2R,4S,5R,6R)-6-((1R,2R)-1,2-dihydroxy-3-(2-((1s,4S)-4-hydroxycyclohexyl)acetamido)propyl)-4-hydroxy-5-(2-hydroxyacetamido)-2-(2-(2-(prop-2-yn-1-yloxy)ethoxy)ethoxy)tetrahydro-2H-pyran-2-carboxylic acid]
> 6.00	> 6.00	> 6.00	C#CCCOc1cccc(CO[C@]2(C(=O)O)C[C@H](O)[C@@H](NC(=O)CO)[C@H]([C@H](O)[C@H](O)CNC(=O)Cc3ccc(-c4ccccc4)cc3)O2)c1 [Compound 38, (2R,4S,5R,6R)-6-((1R,2R)-3-(2-([1,1′-biphenyl]-4-yl)acetamido)-1,2-dihydroxypropyl)-2-((3-(but-3-yn-1-yloxy)benzyl)oxy)-4-hydroxy-5-(2-hydroxyacetamido)tetrahydro-2H-pyran-2-carboxylic acid]
5.00 to 6.00	5.00 to 6.00	> 6.00	C#CCOCCCCCCO[C@]1(C(=O)O)C[C@H](O)[C@@H](NC(=O)CO)[C@H]([C@H](O)[C@H](O)CNC(=O)Cc2ccc(C(F)(F)F)cc2)O1 [Compound 158, (2R,4S,5R,6R)-6-((1R,2R)-1,2-dihydroxy-3-(2-(4-(trifluoromethyl)phenyl)acetamido)propyl)-4-hydroxy-5-(2-hydroxyacetamido)-2-((6-(prop-2-yn-1-yloxy)hexyl)oxy)tetrahydro-2H-pyran-2-carboxylic acid]
< 5.00	< 5.00	< 5.00	C#CCNC(=O)CCOCCOCCO[C@]1(c2nn[nH]n2)C[C@H](O)[C@@H](NC(=O)CO)[C@H]([C@H](O)[C@H](O)CNC(=O)Cc2ccc(Cl)cc2)O1 [Compound 226, 3-(2-(2-(((2R,4S,5R,6R)-6-((1R,2R)-3-(2-(4-chlorophenyl)acetamido)-1,2-dihydroxypropyl)-4-hydroxy-5-(2-hydroxyacetamido)-2-(2H-tetrazol-5-yl)tetrahydro-2H-pyran-2-yl)oxy)ethoxy)ethoxy)-N-(prop-2-yn-1-yl)propanamide]
5.00 to 6.00	5.00 to 6.00	> 6.00	C#CCOc1ccc(-c2cn([C@]3(C(=O)O)C[C@H](O)[C@@H](NC(=O)CO)[C@H]([C@H](O)[C@H](O)CNC(=O)Cc4ccc(-c5ccc(O)cc5)cc4)O3)nn2)cc1 [Compound 53, (2R,4S,5R,6R)-6-((1R,2R)-1,2-dihydroxy-3-(2-(4′-hydroxy-[1,1′-biphenyl]-4-yl)acetamido)propyl)-4-hydroxy-5-(2-hydroxyacetamido)-2-(4-(4-(prop-2-yn-1-yloxy)phenyl)-1H-1,2,3-triazol-1-yl)tetrahydro-2H-pyran-2-carboxylic acid]
5.00 to 6.00	5.00 to 6.00	5.00 to 6.00	C#CCCOc1ccc(CO[C@]2(C(=O)O)C[C@H](O)[C@@H](NC(=O)CO)[C@H]([C@H](O)[C@H](O)CNC(=O)C3(c4ccc(C(F)(F)F)cc4)CCOCC3)O2)cc1 [Compound 170, (2R,4S,5R,6R)-2-((4-(but-3-yn-1-yloxy)benzyl)oxy)-6-((1R,2R)-1,2-dihydroxy-3-(4-(4-(trifluoromethyl)phenyl)tetrahydro-2H-pyran-4-carboxamido)propyl)-4-hydroxy-5-(2-hydroxyacetamido)tetrahydro-2H-pyran-2-carboxylic acid]
